Laboratory results as given in US9657006B2, “Macrocyclic factor VIIa inhibitors” (BRISTOL-MYERS SQUIBB COMPANY, priority 2013, dated 2017).
Structures can show the parent of a compound that is named as a salt.

Molecular target: T1, FVIIa (Homo sapiens, UniProt P08709)
T1 construct: with about 1% of the total amount in the proteolytically active form factor VIIa
Assay: FVIIa Ki (25° C.): FVIIa peptide substrate assay
Type: biochemical
Conditions: S2288 peptide substrate, full-length human TF
Experimental: The effectiveness of compounds of the present invention as inhibitors of the coagulation Factors, VIIa, IXa, Xa, XIa, XIIa, plasma kallikrein or thrombin, tissue kallikrein and activated protein C, can be determined using a relevant purified serine protease, respectively, and an appropriate synthetic substrate. The rate of hydrolysis of the chromogenic or fluorogenic substrate by the relevant serine protease was measured both in the absence and presence of compounds of the present invention. […] A decrease in the rate of absorbance or fluorescence change in the presence of inhibitor is indicative of enzyme inhibition. Such methods are known to one skilled in the art. The results of this assay are expressed as the inhibitory constant, Ki.
a. FVIIa Ki (25° C.): FVIIa Peptide Substrate Assay
S2288 (range of concentrations) and FVIIa inhibitor were incubated for 15 minutes (min) at 25° C. Reactions were initiated by addition of a solution of full-length human TF (6 nM), FVIIa (0.75 nM), and PCPS (25 μM). FVIIa hydrolyses S2288, which was monitored for up to 60 min at 405 nm. Steady-state reaction velocity data (vs) was globally fit to Equation 1 for competitive inhibition. vs=Vmax[S]/([S]+Km(1+[I]/Ki)) (Eq. 1) where Vmax is maximum velocity, [S] is substrate concentration, Km is the Michaelis-Menten constant, [I] is the inhibitor concentration, and Ki is the inhibitor dissociation constant (GraFit, version 5, Erithacus Software Ltd, West Sussex, UK).

T1 sequence (P08709 213-466 limits assumed): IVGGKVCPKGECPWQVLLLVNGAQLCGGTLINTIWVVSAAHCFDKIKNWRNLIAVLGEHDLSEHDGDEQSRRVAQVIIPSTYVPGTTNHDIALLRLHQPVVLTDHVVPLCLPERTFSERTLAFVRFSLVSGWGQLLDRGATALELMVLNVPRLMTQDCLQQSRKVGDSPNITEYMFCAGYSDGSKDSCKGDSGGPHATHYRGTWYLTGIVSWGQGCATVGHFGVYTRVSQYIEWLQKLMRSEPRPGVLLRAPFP
T1 sequence (P08709 61-212 limits assumed): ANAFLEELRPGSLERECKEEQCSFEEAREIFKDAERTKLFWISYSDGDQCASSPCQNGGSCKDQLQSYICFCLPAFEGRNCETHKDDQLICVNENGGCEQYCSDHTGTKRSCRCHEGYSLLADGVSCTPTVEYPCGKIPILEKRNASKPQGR
T1 sequence (P13726 33-295 partner): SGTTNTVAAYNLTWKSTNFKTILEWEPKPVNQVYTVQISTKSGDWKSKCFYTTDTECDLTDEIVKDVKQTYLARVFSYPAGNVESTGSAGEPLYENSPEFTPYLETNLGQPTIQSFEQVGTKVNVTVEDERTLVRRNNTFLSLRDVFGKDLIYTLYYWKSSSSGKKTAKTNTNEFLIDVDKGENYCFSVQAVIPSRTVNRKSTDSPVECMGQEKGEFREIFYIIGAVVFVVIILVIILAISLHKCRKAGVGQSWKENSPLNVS

Ki	Compound
47 nM	COc1ccc2cc1[C@H](C)CN(C)C(=O)Nc1ccc(S(=O)(=O)C3CC3)c(c1)CN(C)C(=O)C2Nc1ccc2c(N)nccc2c1 (mixture of isomers) [Example 12, (S)-5-(1-Amino-isoquinolin-6-ylamino)-19-cyclopropanesulfonyl-9-methoxy-3,11,13-trimethyl-3,13,15-triaza-tricyclo[14.3.1.1^6,10]henicosa-1(20),6(21),7,9,16,18-hexaene-4,14-dione trifluoroacetic acid salt]
560 nM	CN1Cc2cc(ccc2S(=O)(=O)C2CC2)NC(=O)OCc2cccc(c2)[C@@H](Nc2ccc3c(N)nccc3c2)C1=O (single isomer, unassigned) [Example 3]
1480 nM	CN1Cc2cc(ccc2S(=O)(=O)C2CC2)NC(=O)OCC(C)(C)c2cccc(c2)[C@@H](Nc2ccc3c(N)nccc3c2)C1=O (single isomer, unassigned) [Example 4]
44 nM	COc1ccc2cc1CCOC(=O)Nc1ccc(S(=O)(=O)C3CC3)c(c1)CN(C)C(=O)[C@@H]2Nc1ccc2c(N)nccc2c1 (single isomer, unassigned) [Example 6]
115 nM	C[C@@H]1COC(=O)Nc2ccc(S(=O)(=O)C3CC3)c(c2)CN(C)C(=O)[C@H](Nc2ccc3c(N)nccc3c2)c2cccc1c2 (single isomer, unassigned) [Example 7]
5 nM	CN1Cc2cc(ccc2S(=O)(=O)C2CC2)NC(=O)CCc2cccc(c2)[C@@H](Nc2ccc3c(N)nccc3c2)C1=O (single isomer, unassigned) [Example 8]
5 nM	CN1Cc2cc(ccc2S(=O)(=O)C2CC2)NC(=O)CCc2cc(ccc2F)[C@@H](Nc2ccc3c(N)ncc(F)c3c2)C1=O (single isomer, unassigned) [Example 14]
6 nM	COc1cc2cc(c1)[C@@H](Nc1ccc3c(N)ncc(F)c3c1)C(=O)N(C)Cc1cc(ccc1S(=O)(=O)C1CC1)NC(=O)CC2 (single isomer, unassigned) [Example 15]
7 nM	CN1Cc2cc(ccc2S(=O)(=O)C2CC2)NC(=O)CCc2cccc(c2)[C@@H](Nc2ccc3c(N)ncc(F)c3c2)C1=O (single isomer, unassigned) [Example 17]
6 nM	CN1Cc2cc(ccc2S(=O)(=O)C2CC2)NC(=O)CCc2cc(ccc2OCc2ccccc2)[C@@H](Nc2ccc3c(N)ncc(F)c3c2)C1=O (single isomer, unassigned) [Example 18]
14 nM	CN1CCc2cccc(c2)[C@@H](Nc2ccc3c(N)ncc(F)c3c2)C(=O)N(C)Cc2cc(ccc2S(=O)(=O)C2CC2)NC1=O (single isomer, unassigned) [Example 28]
80 nM	CN1Cc2cc(ccc2S(=O)(=O)C2CC2)NC(=O)N(Cc2ccccc2)CCc2cccc(c2)[C@@H](Nc2ccc3c(N)ncc(F)c3c2)C1=O (single isomer, unassigned) [Example 29]
10 nM	COc1c(F)cc2cc1CCC(=O)Nc1ccc(S(=O)(=O)C3CC3)c(c1)CN(C)C(=O)[C@@H]2Nc1ccc2c(N)ncc(F)c2c1 (single isomer, unassigned) [Example 30]
5 nM	COc1ccc2cc1[C@@H](C)CN(C)C(=O)Nc1ccc(S(=O)(=O)C3CC3)c(c1)CN(C)C(=O)[C@@H]2Nc1ccc2c(N)ncc(F)c2c1 (single isomer, unassigned) [Example 31]
31 nM	C[C@H]1CC(=O)Nc2ccc(S(=O)(=O)C3CC3)c(c2)CN(C)C(=O)[C@H](Nc2ccc3c(N)ncc(F)c3c2)c2ccc(OCC(F)F)c1c2 (single isomer, unassigned) [Example 32, trifluoroacetic acid salt]
5 nM	COc1ccc2cc1CCC(=O)Nc1ccc(S(=O)(=O)C(F)(F)F)c(c1)CN(C)C(=O)[C@@H]2Nc1ccc2c(N)nccc2c1 (single isomer, unassigned) [Example 34, trifluoroacetic acid salt]
6 nM	CN1CCc2cccc(c2)[C@@H](Nc2ccc(C(=N)N)cc2)C(=O)N(C)Cc2cc(cc(F)c2OC(F)F)NC1=O (single isomer, unassigned) [Example 35, trifluoroacetic acid salt]
5 nM	C[C@@H]1CC(=O)Nc2ccc(S(=O)(=O)C3CC3)c(c2)CN(C)C(=O)[C@H](Nc2ccc3c(N)ncc(F)c3c2)c2ccc(OCC(F)F)c1c2 (single isomer, unassigned) [Example 38, trifluoroacetic acid salt]
120 nM	CN1CCc2cc(ccc2OCC(F)F)[C@@H](Nc2ccc3c(N)ncc(F)c3c2)C(=O)N(C)Cc2cc(ccc2S(=O)(=O)C(F)F)NC1=O (single isomer, unassigned) [Example 39, trifluoroacetic acid salt]
5 nM	CN1Cc2cc(cc(F)c2OCC(F)F)NC(=O)CCc2cc(ccc2OCC(F)F)[C@@H](Nc2ccc(C(=N)N)cc2)C1=O (single isomer, unassigned) [Example 40, trifluoroacetic acid salt]
17 nM	CN1Cc2cc(ccc2S(=O)(=O)C2CC2)NC(=O)NCCc2cccc(c2)[C@@H](Nc2ccc3c(N)ncc(F)c3c2)C1=O (single isomer, unassigned) [Example 41, trifluoroacetic acid salt]
5 nM	CN1Cc2cc(cc(F)c2OC(CF)CF)NC(=O)CCc2cc(ccc2OCC(F)F)[C@@H](Nc2ccc(C(=N)N)cc2)C1=O (single isomer, unassigned) [Example 42, trifluoroacetic acid salt]
5 nM	C[C@@H]1CC(=O)Nc2ccc(OC(F)F)c(c2)CN(C)C(=O)[C@H](Nc2ccc(C(=N)N)cc2)c2ccc(OCC(F)F)c1c2 (single isomer, unassigned) [Example 43, trifluoroacetic acid salt]
188 nM	CN1Cc2cc(ccc2S(=O)(=O)C2CC2)NC(=O)OCCc2cccc(c2)[C@@H](Nc2ccc3c(N)nccc3c2)C1=O [Example 1, (R)-5-(1-Amino-isoquinolin-6-ylamino)-19-cyclopropanesulfonyl-3-methyl-13-oxa-3,15-diaza-tricyclo[14.3.1.1^6,10]henicosa-1(19),6(21),7,9,16(20),17-hexaene-4,14-dione trifluoroacetic acid salt+Enantiomer]
950 nM	CN1Cc2cc(ccc2S(=O)(=O)C2CC2)NC(=O)OCC2(CC2)c2cccc(c2)C(Nc2ccc3c(N)nccc3c2)C1=O (centres unmarked) [Example 5, trifluoroacetic acid salt]
23 nM	COc1ccc2cc1COCC(=O)Nc1ccc(S(=O)(=O)C3CC3)c(c1)CN(C)C(=O)[C@@H]2Nc1ccc2c(N)nccc2c1 [Example 9, (R)-5-(1-Amino-isoquinolin-6-ylamino)-19-cyclopropanesulfonyl-9-methoxy-3-methyl-12-oxa-3,15-diaza-tricyclo[14.3.1.1^6,10]henicosa-1(19),6(21),7,9,16(20),17-hexaene-4,14-dione trifluoroacetic acid salt+Enantiomer]
714 nM	CN1Cc2cc(ccc2S(=O)(=O)C2CC2)NC(=O)COc2cccc(c2)[C@@H](Nc2ccc3c(N)nccc3c2)C1=O [Example 10, (R)-14-(1-Amino-isoquinolin-6-ylamino)-9-cyclopropanesulfonyl-12-methyl-2-oxa-5,12-diaza-tricyclo[13.3.1.1^6,10]icosa-1(18),6(20),7,9,15 (19),16-hexaene-4,13-dione trifluoroacetic acid salt+Enantiomer]
115 nM	CN1CCc2cc(ccc2OCc2ccccc2)C(Nc2ccc3c(N)ncc(F)c3c2)C(=O)N(C)Cc2cc(ccc2S(=O)(=O)C2CC2)NC1=O (centres unmarked) [Example 19, 5-(1-Amino-4-fluoro-isoquinolin-6-ylamino)-9-benzyloxy-19-cyclopropanesulfonyl-3,13-dimethyl-3,13,15-triaza-tricyclo[14.3.1.1^6,10]henicosa-1(19),6(21),7,9,16(20),17-hexaene-4,14-dione, trifluoroacetic acid salt]
5 nM	CN1Cc2cc(ccc2S(=O)(=O)C2CC2)NC(=O)CCc2cc(ccc2OCC(F)F)[C@@H](Nc2ccc3c(N)ncc(F)c3c2)C1=O [Example 21, (R)-11-(1-Amino-4-fluoro-isoquinolin-6-ylamino)-16-cyclopropane sulfonyl-7-(2,2-difluoro-ethoxy)-13-methyl-2,13-diaza-tricyclo[13.3.1.1^6,10]icosa-1(19),6,8,10(20),15,17-hexaene-3,12-dione trifluroracetic acid salt]
5 nM	CN1Cc2cc(ccc2S(=O)(=O)C2CC2)NC(=O)CCc2cc(ccc2OCC2CC2)[C@@H](Nc2ccc3c(N)ncc(F)c3c2)C1=O [Example 22, (R)-11-(1-Amino-4-fluoro-isoquinolin-6-ylamino)-16-cyclopropane sulfonyl-7-cyclopropylmethoxy-13-methyl-2,13-diaza-tricyclo[13.3.1.1^6,10]icosa-1(19),6,8,10(20),15,17-hexaene-3,12-dione trifluroracetic acid salt]

Compound	Ki
4-((R)-16-Difluoromethoxy-17-fluoro-3,12-dioxo-2,13-diaza-tricyclo[13.3.1.1^6,10]icosa-1(19),6,8,10(20),15,17-hexaen-11-ylamino)-benzamidine trifluoroacetic acid salt [Example 37]	11 nM
COc1ccc2cc1CCC(=O)Nc1ccc(S(=O)(=O)C3CC3)c(c1)CN(C)C(=O)[C@@H]2Nc1ccc2c(N)ncc(F)c2c1 (single isomer, unassigned) [Example 11]	5 nM
